In US20060069132A1, “Azolecarboxamide herbicides” (priority 2004, published 2006):

Key:
Surinam grass = assay: Test B pre-/postemergence herbicide test; type: in vivo, Urochloa decumbens; conditions: for Surinam Grass plant response rating: postemergence, scale 0 (no effect) to 100 (complete control)
Summary of the method: (§1)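 Plants compared with untreated controls 13–15 days post-treatment and given a visual 0–100 injury score. Applications: preemergence to seeds; postemergence at 1- to 4-leaf (2–18 cm); paddy species flooded, 2-leaf stage. Vehicle non-phytotoxic, surfactant included.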

cocklebur = assay: Test B pre-/postemergence herbicide test; type: in vivo, Xanthium strumarium; conditions: for Cocklebur plant response rating: postemergence, scale 0 (no effect) to 100 (complete control)
Summary of the method: as §1

blackgrass = assay: Test B postemergence herbicide test; type: in vivo, Alopecurus myosuroides; conditions: postemergence, visual rating, scale 0 (no effect) to 100 (complete control)
Summary of the method: (§2)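 Formulated test chemicals went onto postemergence plants measuring 2 to 18 cm, at one to four leaves. For the paddy assay, species had reached two leaves. Scoring took place 13–15 days later by eye, relative to untreated plants, using 0 for no effect up to 100 for full control.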

pigweed = assay: Test B pre-/postemergence herbicide test; type: in vivo, Amaranthus retroflexus; conditions: for Pigweed plant response rating: postemergence, scale 0 (no effect) to 100 (complete control)
Summary of the method: as §1

barnyardgrass [1] = assay: Test B pre-/postemergence herbicide test; type: in vivo, Echinochloa crus-galli; conditions: for Barnyardgrass plant response rating: postemergence, scale 0 (no effect) to 100 (complete control)
Summary of the method: as §1

barnyardgrass [2] = assay: Test B flooded paddy test; type: in vivo, Echinochloa crus-galli; conditions: 1000 g ai/ha, scale 0 to 100 (0 no effect, 100 complete control)
Summary of the method: as §2

ducksalad [3] = assay: Test C flooded paddy test; type: in vivo, Heteranthera limosa
corn = assay: Test B pre-/postemergence herbicide test; type: in vivo, Zea mays; conditions: for Corn plant response rating: postemergence, scale 0 (no effect) to 100 (complete control)
Summary of the method: as §1

rice [4] = assay: Test B flooded paddy test; type: in vivo, Oryza sativa; conditions: 1000 g ai/ha, scale 0 to 100 (0 no effect, 100 complete control)
Summary of the method: as §2

ducksalad [5] = assay: Test B flooded paddy test; type: in vivo, Heteranthera limosa; conditions: 1000 g ai/ha, scale 0 to 100 (0 no effect, 100 complete control)
Summary of the method: as §2

wild oat = assay: Test B postemergence herbicide test; type: in vivo, Avena fatua; conditions: postemergence, visual rating, scale 0 (no effect) to 100 (complete control)
Summary of the method: (§3)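 Treated at 2-leaf (paddy) or 1–4-leaf, 2–18 cm (postemergence); greenhouse 13–15 d; visual score vs control, 0 none to 100 complete control; dash = not tested.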

[6] = test system: smallflower umbrella sedge; assay: Test C flooded paddy test; type: in vivo, Cyperus difformis
barnyardgrass [7] = assay: Test C flooded paddy test; type: in vivo, Echinochloa crus-galli
Summary of the method: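 After a postemergence application at 1 to 4 leaves (plants 2–18 cm high), or at 2 leaves for barnyardgrass in flooded paddy, plants stayed in the greenhouse for 12 to 14 days. Damage was then judged visually relative to control plants, with 100 indicating complete control.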

wheat = assay: Test B postemergence herbicide test; type: in vivo, Triticum aestivum; design: key to Wheat plant response rating: 0 = no effect, 100 = complete control; conditions: postemergence, visual rating, scale 0 (no effect) to 100 (complete control)
Summary of the method: as §3

large crabgrass = assay: Test B pre-/postemergence herbicide test; type: in vivo, Digitaria sanguinalis; conditions: for Crabgrass, Large plant response rating: postemergence, scale 0 (no effect) to 100 (complete control)
Summary of the method: as §1

rice [8] = assay: Test C flooded paddy test; type: in vivo, Oryza sativa
Summary of the method: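 Injury scored visually against controls on a 0 (no effect) to 100 (complete control) scale, 12 to 14 days after treatment in greenhouse. Flooded paddy plants treated at 2-leaf stage; postemergence plants at 1- to 4-leaf stage, 2 to 18 cm tall.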

morningglory = assay: Test B pre-/postemergence herbicide test; type: in vivo, Ipomoea coccinea; conditions: for Morningglory plant response rating: postemergence, scale 0 (no effect) to 100 (complete control)
Summary of the method: as §1

[9] = test system: small flower umbrella sedge; assay: Test B flooded paddy test; type: in vivo, Cyperus difformis; conditions: 1000 g ai/ha, scale 0 to 100 (0 no effect, 100 complete control)
Summary of the method: as §2

giant foxtail = assay: Test B pre-/postemergence herbicide test; type: in vivo, Setaria faberi; conditions: for Foxtail, Giant plant response rating: postemergence, scale 0 (no effect) to 100 (complete control)
Summary of the method: as §1

rice [10] = assay: Test B pre-/postemergence herbicide test; type: in vivo, Oryza sativa; conditions: 0 = no effect, 100 = complete control, preemergence
Summary of the method: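 Greenhouse pot assay with simultaneous preemergence (treated seed) and postemergence (2–18 cm seedlings) applications of surfactant-containing, non-phytotoxic solvent formulations. Response scored visually 13–15 days later on a 0–100 scale, 100 meaning complete control.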

lambsquarters = assay: Test B pre-/postemergence herbicide test; type: in vivo, Chenopodium album; conditions: for Lambsquarters plant response rating: postemergence, scale 0 (no effect) to 100 (complete control)
Summary of the method: as §1

velvetleaf = assay: Test B pre-/postemergence herbicide test; type: in vivo, Abutilon theophrasti; conditions: for Velvetleaf plant response rating: postemergence, scale 0 (no effect) to 100 (complete control)
Summary of the method: as §1

[11] = 125 g ai/ha, 0 = no effect, 100 = complete control, preemergence
[12] = 500 g ai/ha, visual rating, 0 = no effect, 100 = complete control, preemergence
[13] = 62 g ai/ha, scale 0 to 100 (0 no effect, 100 complete control)
[14] = 125 g ai/ha, scale 0 to 100 (0 no effect, 100 complete control)
[15] = 250 g ai/ha, scale of 0 to 100, 0 is no effect, 100 is complete control
[16] = 500 g ai/ha, visual rating after 12 to 14 days, scale 0 to 100 (0 no effect, 100 complete control)

CCc1nc(C(C)(C)C)sc1C(=O)Nc1cc(C(=O)N(C)CC)ccc1F [Compound 231]
Surinam Grass plant response rating (0 to 100 scale) (Surinam grass; [11]): 20 | Plant response rating, Surinam Grass (Surinam grass; [12]): 60 | Surinam Grass plant response rating (Surinam grass; 125 g ai/ha, visual rating): 10 | Surinam Grass plant response rating (Surinam grass; 500 g ai/ha, visual rating): 30 | Cocklebur plant response rating (0 to 100 scale) (cocklebur; [11]): 0 | Plant response rating, Cocklebur (cocklebur; [12]): 30 | Cocklebur plant response rating (cocklebur; 125 g ai/ha, visual rating): 10 | Cocklebur plant response rating (cocklebur; 500 g ai/ha, visual rating): 40 | Blackgrass plant response rating (blackgrass; 125 g ai/ha): 20 | Blackgrass plant response rating (blackgrass; 500 g ai/ha): 30 | Pigweed plant response rating (0 to 100 scale) (pigweed; [11]): 60 | Plant response rating, Pigweed (pigweed; [12]): 100 | Pigweed plant response rating (pigweed; 125 g ai/ha, visual rating): 50 | Pigweed plant response rating (pigweed; 500 g ai/ha, visual rating): 70 | Barnyardgrass plant response rating (0 to 100 scale) (barnyardgrass [1]; [11]): 50 | Plant response rating, Barnyardgrass (barnyardgrass [1]; [12]): 80 | Barnyardgrass plant response rating (barnyardgrass [1]; 125 g ai/ha, visual rating): 10 | Barnyardgrass plant response rating (barnyardgrass [1]; 500 g ai/ha, visual rating): 40 | Barnyardgrass plant response rating (barnyardgrass [2]): 80 | Ducksalad plant response rating (ducksalad [3]; [13]): 10 | Ducksalad plant response rating (ducksalad [3]; [14]): 60 | Ducksalad plant response rating (ducksalad [3]; [15]): 70 | Plant response rating, Ducksalad (ducksalad [3]; [16]): 80 | Corn plant response rating (0 to 100 scale) (corn; [11]): 0 | Plant response rating, Corn (corn; [12]): 50 | Corn plant response rating (corn; 125 g ai/ha, visual rating): 10 | Corn plant response rating (corn; 500 g ai/ha, visual rating): 20 | Rice plant response rating (rice [4]): 80 | Ducksalad plant response rating (ducksalad [5]): 90 | Oat, Wild plant response rating (wild oat; 125 g ai/ha): 20 | Oat, Wild plant response rating (wild oat; 500 g ai/ha): 40 | Sedge, Umbrella plant response rating [6, 13]: 10 | Sedge, Umbrella plant response rating [6, 14]: 55 | Sedge, Umbrella plant response rating [6, 15]: 65 | Plant response rating, Sedge, Umbrella [6, 16]: 75 | Barnyardgrass plant response rating (barnyardgrass [7]; [13]): 40 | Barnyardgrass plant response rating (barnyardgrass [7]; [14]): 45 | Barnyardgrass plant response rating (barnyardgrass [7]; [15]): 75 | Plant response rating, Barnyardgrass (barnyardgrass [7]; [16]): 80 | Wheat plant response rating (wheat; 125 g ai/ha): 20 | Wheat plant response rating (wheat; 500 g ai/ha): 40 | Crabgrass, Large plant response rating (0 to 100 scale) (large crabgrass; [11]): 30 | Plant response rating, Crabgrass, Large (large crabgrass; [12]): 90 | Crabgrass, Large plant response rating (large crabgrass; 125 g ai/ha, visual rating): 20 | Crabgrass, Large plant response rating (large crabgrass; 500 g ai/ha, visual rating): 20 | Rice plant response rating (rice [8]; [13]): 30 | Rice plant response rating (rice [8]; [14]): 55 | Rice plant response rating (rice [8]; [15]): 75 | Plant response rating, Rice (rice [8]; [16]): 80 | Morningglory plant response rating (0 to 100 scale) (morningglory; [11]): 10 | Plant response rating, Morningglory (morningglory; [12]): 10 | Morningglory plant response rating (morningglory; 125 g ai/ha, visual rating): 20 | Morningglory plant response rating (morningglory; 500 g ai/ha, visual rating): 70 | Sedge, Umbrella plant response rating [9]: 90 | Foxtail, Giant plant response rating (0 to 100 scale) (giant foxtail; [11]): 60 | Plant response rating, Foxtail, Giant (giant foxtail; [12]): 90 | Foxtail, Giant plant response rating (giant foxtail; 125 g ai/ha, visual rating): 20 | Foxtail, Giant plant response rating (giant foxtail; 500 g ai/ha, visual rating): 30 | Rice plant response rating (0 to 100 scale) (rice [10]; 125 g ai/ha): 20 | Plant response rating, Rice (rice [10]; 500 g ai/ha, visual rating): 50 | Lambsquarters plant response rating (0 to 100 scale) (lambsquarters; [11]): 80 | Plant response rating, Lambsquarters (lambsquarters; [12]): 100 | Lambsquarters plant response rating (lambsquarters; 125 g ai/ha, visual rating): 60 | Lambsquarters plant response rating (lambsquarters; 500 g ai/ha, visual rating): 70 | Velvetleaf plant response rating (0 to 100 scale) (velvetleaf; [11]): 30 | Plant response rating, Velvetleaf (velvetleaf; [12]): 90 | Velvetleaf plant response rating (velvetleaf; 125 g ai/ha, visual rating): 30 | Velvetleaf plant response rating (velvetleaf; 500 g ai/ha, visual rating): 50
